Melting point and IC50 data for 35 molecules are collected here from patent US6444696B1, “Pyrazole derivatives P38 MAP kinase inhibitors” (Syntex (U.S.A.) LLC, priority 1998, dated 2002).

The structures appear in SMILES notation. Counter-ions that a name gives are not always drawn. Some results are limits rather than exact numbers.

Test system in the first data set: not given
Test: not given
Details: not given
`Nc1c(C(=O)c2cccc(OCC(=O)N3CCOCC3)c2)cnn1-c1ccc(F)cc1` [compound 35, 5-amino-1-(4-fluorophenyl)-4-[3-(morpholin-4-ylcarbonylmethyloxy)benzoyl]pyrazole]: the melting point lay within 124.3 to 126.6 °C. On the same count and under the same terms, for `CC(C)(O)C#Cc1cccc(C(=O)c2cnn(-c3ccc(F)cc3)c2N)c1` [compound 87, 5-amino-1-(4-fluorophenyl)-4-[3-(3-hydroxy-3-methyl-but-1-ynyl)benzoyl]pyrazole] the value was 152.6 to 153.1 °C.

As to `Nc1c(C(=O)c2cccc(CCc3cccnc3)c2)cnn1-c1ccc(F)cc1F` [compound 91, 5-amino-1-(2,4-difluorophenyl)-4-[3-(3-pyridylethyl)benzoyl]pyrazole], the melting point lay in the range of 153.4 to 153.7 °C. The same measure, in the same setting: for `COc1cccc(-n2ncc(C(=O)c3cccc(-c4cccnc4)c3)c2N)c1` (as salt: HCl) [compound 66, 5-amino-1-(3-methoxyphenyl)-4-[3-(pyridin-3-yl)benzoyl]pyrazole] the value was 256.1 to 256.5 °C.

`Nc1c(C(=O)c2cccc(-c3cccnc3)c2)cnn1-c1ccc(S(N)(=O)=O)cc1` (as salt: HCl) [compound 68, 5-amino-1-(4-sulfamoylphenyl)-4-[3-(pyridin-3-yl)benzoyl]pyrazole] registered a melting point above 300 °C. Turning to `Nc1c(C(=O)c2cccc(OCCN3CCOCC3)c2)cnn1-c1ccccc1F` [compound 97, 5-amino-1-(2-fluorophenyl)-4-[3-(2-morpholin-4-ylethoxy)benzoyl]pyrazole], the melting point lay in the range of 130.8 to 135.1 °C. The same measure, in the same setting: for `Cc1ccccc1-n1ncc(C(=O)c2cccc(C(O)CO)c2)c1N` (centres unmarked) [compound 109, 5-amino-1-(2-methylphenyl)-4-[3-(1,2-dihydroxyethyl)benzoyl]pyrazole] the value was 83 to 85.5 °C; for `Nc1c(C(=O)c2cccc(CCC3(O)CCCC3)c2)cnn1-c1ccc(F)cc1F` [compound 95, 5-amino-1-(2,4-difluorophenyl)-4-[3-{2-(1-hydroxycyclopentyl)ethyl}benzoyl]pyrazole], 120.3 to 121 °C.

In turn, `COC(=O)OCC(COc1cccc(C(=O)c2cnn(-c3ccc(F)cc3)c2N)c1)OC(=O)OC` (stereo in doubt) [compound 168, 5-amino-1-(4-fluorophenyl)-4-[3-{2(S),3-(dimethoxycarbonyloxy)propoxy}benzoyl]pyrazole] had a melting point of 62 to 65 °C.

Molecule `Nc1c(C(=O)c2cccc(OCCN3CCOCC3)c2)cnn1-c1c(Cl)cccc1Cl` [compound 98, 5-amino-1-(2,6-dichlorophenyl)-4-[3-(2-morpholin-4-ylethoxy)benzoyl]pyrazole] registered a melting point of 144.2 to 145.1 °C. As for `CCNC(=O)Oc1cccc(C(=O)c2cnn(-c3ccc(F)cc3)c2N)c1`, the melting point is 201.2 to 202.8 °C. The same measure, in the same setting: the same measure for `Nc1c(C(=O)c2cccc(OCC(=O)O)c2)cnn1-c1ccc(F)cc1` [compound 119]: 215.9 to 216.2 °C; for `Nc1c(C(=O)c2cccc(OCc3ccccn3)c2)cnn1-c1ccc(F)cc1` [compound 82, 5-amino-1-(4-fluorophenyl)-4-[3-(pyridin-2-ylmethoxy)benzoyl]pyrazole]: 176.1 to 177.3 °C. Same read-out and setting: the same measure for `Nc1c(C(=O)c2cccc(C(O)CO)c2)cnn1-c1ccc(F)cc1F` (centres unmarked) [compound 103, 5-amino-1-(2,4-difluorophenyl)-4-[3-(1,2-dihydroxyethyl)benzoyl]pyrazole]: 59 to 64 °C; for `CN1CCN(CCCc2cccc(C(=O)c3cnn(-c4ccc(F)cc4)c3N)c2)CC1` (as salt: HCl) [compound 30, 5-amino-1-(4-fluorophenyl)-4-{3-[3-(4-methylpiperazin-1-yl)propyl]benzoyl}pyrazole]: 254.5 to 254.9 °C. `CC1(C)OCC(COc2cccc(C(=O)c3cnn(-c4ccc(F)cc4)c3N)c2)O1` (stereo in doubt) [compound 170, 5-amino-1-(4-fluorophenyl)-4-{3-[(2,2-dimethyl-1,3-dioxolan-4(S)-yl)methoxy]benzoyl}pyrazole] showed a melting point of 78.3 to 80 °C. Still for that read-out and setting: for `CC(=O)OCC(COc1cccc(C(=O)c2cnn(-c3ccc(F)cc3)c2N)c1)OC(C)=O` (stereo in doubt) [compound 165, 5-amino-1-(4-fluorophenyl)-4-[3-{2(S),3-(diacetoxy)propoxy}benzoyl]pyrazole] the value was 91.4 to 92.7 °C; for `Nc1c(C(=O)c2cccc(CN3CCCCC3)c2)cnn1-c1ccc(F)cc1F` [compound 86, 5-Amino-1-(2,4-difluorophenyl)-4-[3-(1-piperidinylmethyl)benzoyl]pyrazole], 116.6 to 118.6 °C.

The molecule `Cc1ccc(-n2ncc(C(=O)c3cccc(-c4cccnc4)c3)c2N)cc1` (as salt: HCl) [compound 65, 5-amino-1-(4-methylphenyl)-4-[3-(pyridin-3-yl)benzoyl]pyrazole] yielded a melting point of 281.3 to 282.8 °C.

Turning to `Nc1c(C(=O)c2cccc(OC[C@@H]3COC(=O)O3)c2)cnn1-c1ccc(F)cc1` [compound 171, 5-amino-1-(4-fluorophenyl)-4-{3-[(1,3-dioxolan-2-on-4(R)-yl)methoxy]benzoyl}pyrazole], the melting point is 144.3 to 144.9 °C. Same read-out and setting: the same measure for `Nc1c(C(=O)c2cccc(CCCN3CCCCC3)c2)cnn1-c1ccc(F)cc1` (as salt: HCl) [compound 32, 5-amino-1-(4-fluorophenyl)-4-[3-(3-piperidin-1-ylpropyl)benzoyl]pyrazole]: 227.1 to 277.7 °C; for `Nc1c(C(=O)c2cccc(C#CC3(O)CCCC3)c2)cnn1-c1ccc(F)cc1F` [compound 94, 5-amino-1-(2,4-difluorophenyl)-4-[3-{2-(1-hydroxycyclopentyl)ethynyl}benzoyl]pyrazole]: 176.8 to 177.1 °C. `Nc1c(C(=O)c2cccc(C#Cc3cccnc3)c2)cnn1-c1ccc(F)cc1F` [compound 88, 5-amino-1-(2,4-difluorophenyl)-4-[3-(3-pyridylethynyl)benzoyl]pyrazole] returned a melting point of 183.5 to 184 °C.

With `CCC1(C)OC[C@H](COc2cccc(C(=O)c3cnn(-c4ccc(F)cc4)c3N)c2)O1` (stereo partly drawn) [compound 174, 5-amino-1-(4-fluorophenyl)-4-{3-[(2-methyl-2-ethyl-1,3-dioxolan-4(S)-yl)methoxy]benzoyl}pyrazole], the melting point is 81.1 to 83 °C. Regarding `CCC1(CC)OC[C@H](COc2cccc(C(=O)c3cnn(-c4ccc(F)cc4)c3N)c2)O1` [compound 173, 5-amino-1-(4-fluorophenyl)-4-{3-[(2,2-diethyl-1,3-dioxolan-4(S)-yl)methoxy]benzoyl}pyrazole], the melting point was 74.1 to 75.7 °C.

The molecule `Nc1c(C(=O)c2cccc(CCCN3CCS(=O)(=O)CC3)c2)cnn1-c1ccc(F)cc1F` [compound 92, 5-amino-1-(2,4-difluorophenyl)-4-[3-{3-(S,S-dioxo-thiomorpholin-4-yl)propyl}benzoyl]pyrazole] gave a melting point of 123.8 to 125.9 °C. Still for that read-out and setting: for `Nc1c(C(=O)c2cccc(CN3CCOCC3)c2)cnn1-c1ccc(F)cc1F` [compound 131] the value was 127.3 to 128.5 °C. With `CC(C)NC(=O)Oc1cccc(C(=O)c2cnn(-c3ccc(F)cc3)c2N)c1`, the melting point lay in the range of 225.2 to 230.1 °C. Still for that read-out and setting: the same measure for `Nc1c(C(=O)c2cccc(OCCn3ncccc3=O)c2)cnn1-c1ccc(F)cc1` [compound 128]: 174.5 to 178 °C; for `Nc1c(C(=O)c2cccc(CN3CCC(O)CC3)c2)cnn1-c1ccc(F)cc1F` [compound 133]: 141.5 to 145.5 °C.

The target of a further data set is T1, p38 MAP kinase (Homo sapiens, UniProt Q16539).
T1 construct: made in house; host or cells: E. coli (co-expressed with SEK-1 and MEKK to obtain the phosphorylated form)
T1 sequence (Q16539 whole entry): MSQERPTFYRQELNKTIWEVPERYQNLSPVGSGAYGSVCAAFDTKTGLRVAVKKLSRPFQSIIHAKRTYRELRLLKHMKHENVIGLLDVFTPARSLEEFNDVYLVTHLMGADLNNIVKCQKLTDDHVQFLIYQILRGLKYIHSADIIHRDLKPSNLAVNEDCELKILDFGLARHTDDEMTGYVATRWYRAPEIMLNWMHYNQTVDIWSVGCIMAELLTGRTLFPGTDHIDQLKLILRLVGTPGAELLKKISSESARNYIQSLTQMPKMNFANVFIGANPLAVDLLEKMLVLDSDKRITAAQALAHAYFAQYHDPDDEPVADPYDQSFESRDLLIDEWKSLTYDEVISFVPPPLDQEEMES
Description: Inhibition of p-38 (MAP) kinase, in vitro assay (transfer of γ-33P from ATP to Myelin Basic Protein). It is filed as biochemical. The note with it: phosphorylated recombinant p38 MAP kinase, MBP substrate, γ-33P-ATP, 30° C.; read-out: IC50, μM (p-38 inhibitory activity). Here is the method:
The p-38 MAP kinase inhibitory activity of compounds of this invention in vitro was determined by measuring the transfer of the γ-phosphate from γ-^33P-ATP by p-38 kinase to Myelin Basic Protein (MBP), using the a minor modification of the method described in Ahn, N. G.; et al. J. Biol. Chem. Vol. 266(7), 4220-4227, (1991).
The phosphorylated form of the recombinant p38 MAP kinase was expressed with SEK-1 and MEKK in E. Coli and then purified by affinity chromatography using a Nickel column.
The phosphorylated p38 MAP kinase was diluted in kinase buffer (20 mM 3-(N-morpholino)propanesulfonic acid, pH 7.2, 25 mM β-glycerol phosphate, 5 mM ethylene glycol-bis(beta-aminoethyl ether)-N,N,N′,N′-tetraacetic acid, 1 mM sodium vanadate, 1 mM dithiothreitol, 40 mM magnesium chloride). Test compound dissolved in DMSO or only DMSO (control) was added and the samples were incubated for 10 min at 30° C. The kinase reaction was initiated by the addition of a substrate cocktail containing MBP and γ-^33P-ATP. After incubating for an additional 20 min at 30° C., the reaction was terminated by adding 0.75% phosphoric acid. The phosphorylated MBP was then separated from the residual γ-^33P-ATP using a phosphocellulose membrane (Millipore, Bedford, Mass.) and quantitated using a scintillation counter (Packard, Meriden, Conn.).
Compounds of the invention were active in this assay.
As to `Nc1c(C(=O)c2cccc(CCS(N)(=O)=O)c2)cnn1-c1ccc(F)cc1` [compound 50, 5-Amino4-[3-(2-aminosulfonylethyl)benzoyl]-1-(4-fluorophenyl)pyrazole], the half-inhibitory concentration (IC50) is 1.25 µM.

In the case of `Nc1c(C(=O)c2cccc(C#CCN3CCOCC3)c2)cnn1-c1ccc(F)cc1` [compound 3, 5-Amino-1-(4-fluorophenyl)-4-[3-{3-(morpholin-4-yl)prop-1-ynyl}benzoyl]pyrazole], the IC50 worked out at 1.78 µM. Same read-out and setting: the same measure for `Nc1c(C(=O)c2cccc(OCCN3CCOCC3)c2)cnn1-c1ccc(F)cc1` [compound 14, 5-Amino-1-(4-fluorophenyl)-4-[3-{2-(morpholin-4-yl)ethoxy}benzoyl]pyrazole hydrochloride]: 1.27 µM.

For `Nc1c(C(=O)c2cccc(CCCN3CCOCC3)c2)cnn1-c1ccc(F)cc1` [compound 6, 5-Amino-1-(4-fluorophenyl)-4-[3-(3-morpholin-4-ylpropyl)benzoyl]pyrazole hydrochloride], the half-maximal inhibitory concentration (IC50) came out at 1.74 µM. Still for that read-out and setting: for `Nc1c(C(=O)c2cccc(C#CCN3CCCCC3)c2)cnn1-c1ccc(F)cc1` [compound 9, 5-amino-1-(4-fluorophenyl)-4-[3-{3-(piperidin-1-yl)prop-1-ynyl}benzoyl]pyrazole.HCl] the value was 1.32 µM.

The melting point is the temperature of the solid-liquid transition. The IC50 is the concentration that inhibits the measured activity by half.
